For two molecules, Ki results are on record in US7868023B2, “Thiophene sulfoximines, compositions thereof, and methods of treating complement-mediated diseases and conditions” (Janssen Pharmaceutica NV, priority 2005, dated 2011).

The target of one assay is T1, activated human C1s (Homo sapiens, UniProt P09871).
T1 construct: purchased Calbiochem (La Jolla, Calif.)
T1 sequence (P09871 438-688 limits assumed): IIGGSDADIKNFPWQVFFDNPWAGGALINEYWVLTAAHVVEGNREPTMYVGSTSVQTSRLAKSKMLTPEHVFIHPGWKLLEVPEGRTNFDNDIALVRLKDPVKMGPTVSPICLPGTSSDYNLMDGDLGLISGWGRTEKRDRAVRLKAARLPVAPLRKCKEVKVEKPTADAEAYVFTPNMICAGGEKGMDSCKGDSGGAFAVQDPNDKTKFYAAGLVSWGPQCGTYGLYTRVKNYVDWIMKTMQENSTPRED
T1 sequence (P09871 16-437 limits assumed): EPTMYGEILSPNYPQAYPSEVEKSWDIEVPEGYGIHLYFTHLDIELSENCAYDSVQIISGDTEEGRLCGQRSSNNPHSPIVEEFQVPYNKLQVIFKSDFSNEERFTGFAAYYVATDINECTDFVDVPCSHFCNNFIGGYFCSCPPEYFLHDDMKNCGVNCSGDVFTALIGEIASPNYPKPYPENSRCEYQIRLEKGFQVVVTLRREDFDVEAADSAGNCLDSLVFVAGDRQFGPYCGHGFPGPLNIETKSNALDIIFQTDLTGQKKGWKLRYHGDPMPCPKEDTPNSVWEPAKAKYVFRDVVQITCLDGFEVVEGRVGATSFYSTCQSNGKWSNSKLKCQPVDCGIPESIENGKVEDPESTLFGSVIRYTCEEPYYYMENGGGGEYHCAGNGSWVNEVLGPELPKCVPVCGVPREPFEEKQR
The assay can be described thus: In vitro inhibition of C1s (Ki determination, Z-Gly-Arg-S-Bzl hydrolysis, DTNB readout). To be noted: substrate Z-Gly-Arg-S-Bzl 45 μM, 37° C., pH 7.5. The format is biochemical. The source says: Reagents: All buffer salts were obtained from Sigma Chemical Company (St. Louis, Mo.), and were of the highest purity available. DTNB was purchased from Pierce (Rockford, Ill.). Z-Gly-Arg-S-Bzl was purchased from Enzyme Systems Products (Livermore, Calif.). Activated human C1s was purchased from Calbiochem (La Jolla, Calif.).
Ki Determinations All assays were based on the ability of the test compound to inhibit the C1s-catalyzed hydrolysis of the substrate Z-Gly-Arg-S-Bzl, which was observed via a secondary reaction with 5,5′-dithio-bis(2-nitrobenzoic acid) (DTNB). […]
(§1) In a typical Ki determination, into each well of a 96-well plate was pipetted 280 μL of substrate solution, 10 μL of test compound solution, and the plate allowed to thermally equilibrate at 37° C. for 15 minutes. Reactions were initiated by the addition of a 10 μL aliquot of the enzyme, and the absorbance increase at 405 nm was continuously recorded for 15 minutes in a Molecular Devices plate reader. […] The ratio of the velocity (rate of change in absorbance as a function of time) for a sample containing no test compound was divided by the velocity of a sample containing test compound, and was plotted as a function of test compound concentration. The data were fit to a linear regression, and the value of the slope of the line calculated. The inverse of the slope was the experimentally determined Ki value.

A further assay deals with T2, human MASP-2 (Homo sapiens, UniProt O00187).
T2 construct: His-tag; made in house; host or cells: Baculovirus expression system in insect cells
The assay can be described thus: In vitro inhibition of MASP-2 (Ki determination, Z-Gly-Arg-S-Bzl hydrolysis, DTNB readout). The format is biochemical. Particulars: substrate Z-Gly-Arg-S-Bzl 45 μM, 37° C., pH 7.5; Ki app corrected for true Ki.
Source text: Reagents: All buffer salts were obtained from Sigma Chemical Company (St. Louis, Mo.), and were of the highest purity available. DTNB was purchased from Pierce (Rockford, Ill.). Z-Gly-Arg-S-Bzl was purchased from Enzyme Systems Products (Livermore, Calif.). Autoactivated 2-chain human MASP-2 (His-tag, Cys300-Phe686) was produced in-house from a Baculovirus expression system in insect cells.
Ki Determinations All assays were based on the ability of the test compound to inhibit the MASP-2-catalyzed hydrolysis of the substrate Z-Gly-Arg-S-Bzl, which was observed via a secondary reaction with 5,5′-dithio-bis(2-nitrobenzoic acid) (DTNB). […]
as §1, with “of substrate solution followed by 10 μL” for “of substrate solution, 10 μL”, “the plate was allowed to” for “the plate allowed to”, “C. for 10 minutes. Reactions” for “C. for 15 minutes. Reactions”, “line calculated. […]” for “line calculated. The inverse of the slope was the experimentally determined Ki value.”

T2 sequence (O00187 300-686): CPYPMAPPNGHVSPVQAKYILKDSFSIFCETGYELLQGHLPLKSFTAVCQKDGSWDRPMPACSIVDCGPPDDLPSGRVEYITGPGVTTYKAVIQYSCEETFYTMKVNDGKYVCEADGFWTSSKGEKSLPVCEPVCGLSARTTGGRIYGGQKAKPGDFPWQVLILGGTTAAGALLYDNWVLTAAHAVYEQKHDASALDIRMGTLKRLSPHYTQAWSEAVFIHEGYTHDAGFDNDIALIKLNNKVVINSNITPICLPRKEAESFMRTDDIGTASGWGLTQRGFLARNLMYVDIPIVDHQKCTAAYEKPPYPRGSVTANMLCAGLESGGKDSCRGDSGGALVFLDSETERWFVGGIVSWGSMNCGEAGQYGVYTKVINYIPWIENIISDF
T2 sequence (O00187 300-444): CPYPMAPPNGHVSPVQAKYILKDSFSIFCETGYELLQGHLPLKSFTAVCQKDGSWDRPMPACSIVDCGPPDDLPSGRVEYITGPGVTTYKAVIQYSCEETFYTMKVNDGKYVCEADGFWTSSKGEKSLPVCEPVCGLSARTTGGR

Regarding `CSc1sc(C(=N)N)cc1S(=O)(=NS(=O)(=O)c1cccc(NC(N)=O)c1)c1cccc(-c2c(C)cc(NC(=N)N)cc2N)c1` (stereo not drawn) [Example 18, 4-[S-[3-(2-Amino-4-guanidino-6-methyl-phenyl)phenyl]-N-(3-ureidobenzene-sulfonyl)sulfoxamino]-5-methylsulfanyl-thiophene-2-carboxamidine bistrifluoroacetate], the Ki came out at 0.011 µM on activated human C1s and 0.44 µM on human MASP-2.
Molecule `CSc1sc(C(=N)N)cc1S(=O)(=NS(=O)(=O)c1cccc([N+](=O)[O-])c1)c1cccc(-c2ccc(NC(=N)N)cc2C)c1` (stereo not drawn) [Example 46, 4-[S-[3-(4-guanidino-6-methyl-phenyl)phenyl]-N-(3-nitrobenzene-sulfonyl)sulfoximino]-5-methylsulfanyl-thiophene-2-carboxamidine bistrifluoroacetate] gave a Ki on activated human C1s of 0.01 µM.
